What was measured:
Format in all cases: in vivo, Cryptotis parva
Least Shrew = test: Dose response emesis and scratching studies with tachykinin receptor agonists; conditions: for increase in emesis frequency vs vehicle control / increase in the frequency of vomiting vs vehicle control: 30 min observation; for onset of first emesis after injection: i.p. agonist injection
From the text: The present protocols were based upon preliminary studies as well as published findings in the Least Shrew. Darmani, 2001a; Darmani et al., 69 Pharmacol. Biochem. Behay. 239-49 (2001b). On the test day, the shrews were allowed to acclimate to the test laboratory for at least one hour prior to experimentation. To habituate the animals to the test environment, each shrew was randomly selected and transferred to a 20 cm×18 cm×21 cm clean clear plastic cage and offered four mealworms (Tenebrio sp.) 30 min prior to experimentation. […]
(§1) The data on the frequency of emesis and scratchings were analyzed by the Kruskal-Wallis (KW) nonparametric one-way analysis of variance (ANOVA) and post hoc analysis by Dunn's multiple comparisons test or Mann-Whitney test. A P value of <0.05 was necessary to attain statistical significance. The incidence of emesis (number of shrews vomiting) was analyzed by the Fisher's exact test to determine whether there were differences between groups. When appropriate, pairwise comparisons were also made by this method. Two-way analysis of variance using the Kruskal-Wallis or Fisher's exact tests were initially utilized to respectively analyze the dose-response results of GR73632 on emesis and scratching behaviors, and percentage of shrews vomiting in saporin- and corresponding saline-pretreated control shrews. […] For some emesis data, the two-tailed Mann-Whitney test was used. The SP tissue concentration data were analyzed by a one-way ANOVA followed by Dunnett's t test as post hoc analysis. Fos-IR was quantified by counting immunopositive nuclei within each hemisection containing the region of interest (ROI). The number of nuclei was averaged across sections with the ROI for each animal, and the group mean and standard error obtained.

Fos = test: Fos-IR in brain and enteric nervous system after GR73632; conditions: GR73632 2.5 mg/kg i.p.
Description: Shrews were given four mealworms each and GR73632 (2.5 mg/kg, i.p., or vehicle (saline)) injection. For emesis-related Fos visualization, a shrew was transcardially perfused 60 min to 75 min after vomiting occurred, typically 20 min to 35 min post-injection.
After the appropriate time period as described above, shrews were anesthetized with a lethal dose of pentobarbital ([…]) and perfused transcardially via 25 ga blunted needle connected to a peristaltic pump. The shrew was perfused first with ice cold heparinized saline (0.9% NaC1, 60 sec-90 sec), followed by ice cold 4% paraformaldehyde/5% picric acid in pH7.4, 0.1 M (10 min). Brains were removed and stored in 30% sucrose in 0.1 M phosphate buffer (PB) overnight, then embedded in blocks of 12% gelatin in 30% sucrose/PB. The blocks were postfixed for 3 hr in 2% paraformaldehyde/PB, then rinsed and immersed in 30% sucrose/PB until they sank (usually 1 hr to 2 hr). The brain block was cut on a freezing benchtop microtome (Leica) at 30 μm into five series, and stored in PB with 0.03% sodium azide.
(§2) Immunohistochemistry was performed by blocking free-floating sections with 10% normal horse serum (NHS) and 3% hydrogen peroxide in PB with 0.3% Triton X-100 (TX) for 30 min After rinsing three times in PB, tissue was put in either: (1) rat anti-Substance P monoclonal antibody (Chemicon, 1:400); (2) sheep anti-Fos polyclonal (Chemicon, 1:600); or (3) rabbit anti-NK1 receptor polyclonal (Santa Cruz, 1:500), with 5% NHS and 0.3% TX, and incubated overnight at room temperature with gentle shaking. After rinsing three times in PB, the tissue was placed in biotinylated donkey anti-rat, anti-sheep, or anti-rabbit (respectively) IgG secondary antibody (Jackson Immuno, dilution 1:600). The secondary antibody was diluted in the same diluent described for the primary antibody, and the tissue incubated at room temperature with shaking for 75 min. After rinsing three times in PB, tissue was incubated for 60 min in horse radish peroxidase-conjugated avidin-biotin complex (Vector Labs Vectastain kit, diluted 1:2) in PB. Tissue was then rinsed twice in PB, then once in imidazole-acetate buffer (0.1 M, pH7.4), then reacted for 6 min in 0.0006% hydrogen peroxide with 2% nickel ammonium sulfate-enhanced diaminobenzidine (DAB, 0.05% in 0.1 M imidazole-acetate buffer).
After reacting, the tissue was rinsed thoroughly in PB and mounted onto gel-subbed slides out of PB. After air-drying, slides were dehydrated through a series of ascending ethanols (50%-75%-90%-100%), then cleared in xylene (Fisher). Cleared slides were coverslipped with DEPEX (Electron Microscopy Sciences).
Photomicrographs of regions of interest were taken at 1600×1200 pixel digital resolution with a SPOT digital camera (Diagnostic Instruments) attached to a Pentium 4 PC running version 4.0 of the SPOT software. The camera was mounted to a Nikon Eclipse E600 microscope. A calibrated scale bar was added and the photos exported to Adobe Photoshop 7, where the Photoshop brush tool was used to mark Fos+nuclei as they were counted. Relevant structures were identified using an atlas produced in lab (Ray & Darmani, 2007). Cell counts for each structure were averaged on a per-section basis and collated in a spreadsheet for statistical analysis.
The data on the frequency of emesis and scratchings were analyzed by the Kruskal-Wallis (KW) nonparametric one-way analysis of variance (ANOVA) and post hoc analysis by Dunn's multiple comparisons test or Mann-Whitney test. A P value of <0.05 was necessary to attain statistical significance. The incidence of emesis (number of shrews vomiting) was analyzed by the Fisher's exact test to determine whether there were differences between groups. When appropriate, pairwise comparisons were also made by this method. […]

[1] = test system: Least Shrew, NK1 receptor-intact or NK1 receptor-ablated; test: GR73632 emesis and scratching after SSP-saporin ablation of peripheral NK1 receptors
Description: To better localize the induction of emesis by GR73632, dose-response curves were generated for shrews pretreated either with the NK1 receptor immunotoxin SSP-saporin or saline and challenged four days later with varying doses of GR73632 (0, 1, 2.5, or 5 mg/kg, i.p., n=8-10 per group). Briefly, thirty shrews were injected i.p. with 1.2 mg/kg SSP-saporin in sterile saline, and thirty-five shrews were injected with sterile saline alone. In addition, two more shrews were injected with 1.2 mg/kg unconjugated saporin (saporin; ATS) and two more with 1.2 mg/kg of saporin conjugated to a nonspecific peptide sequence (Blank-saporin; ATS). Shrews were returned to the animal facility for three days and supplied with unrestricted food and water. Saporin-injected and Blank-saporin-injected shrews were perfused four days post-injection, and brain and gut harvested as described for immunohistochemical staining. The SSP-saporin and saline-injected shrews were divided into different groups on day 4 post-injection, and each group was injected i.p. with varying doses varying doses of 0, 1, 2.5, or 5 mg/kg GR73632 dissolved in saline. Each shrew was monitored for 30 min post-injection and vomiting and scratching behaviors quantified. Three shrews from each group were then perfused 90 min to 120 min post-injection as described previously for Fos immunohistochemistry, and brain and gut harvested. Immunohisto-chemistry (IHC) was performed for SP, NK1 receptor, and Fos as described, to qualitatively examine the extent of immunotoxic lesion in the brain and/or enteric nervous system. IHC for SP and NK1 receptor was done on the saporin- and Blank-saporin-injected shrews to verify the specificity of SSP-saporin and lack of toxicity of unconjugated saporin.
as §1

NK1 receptor = test: Histological analysis of NK1 receptor immunotoxic lesions with SSP-saporin
Description: as §2
To better localize the induction of emesis by GR73632, dose-response curves were generated for shrews pretreated either with the NK1 receptor immunotoxin SSP-saporin or saline and challenged four days later with varying doses of GR73632 (0, 1, 2.5, or 5 mg/kg, i.p., n=8-10 per group). Briefly, thirty shrews were injected i.p. with 1.2 mg/kg SSP-saporin in sterile saline, and thirty-five shrews were injected with sterile saline alone. In addition, two more shrews were injected with 1.2 mg/kg unconjugated saporin (saporin; ATS) and two more with 1.2 mg/kg of saporin conjugated to a nonspecific peptide sequence (Blank-saporin; ATS). […] Each shrew was monitored for 30 min post-injection and vomiting and scratching behaviors quantified. […]

[2] = Analysis of SP in serum, gut and brain tissues following intraperitoneal injection of an emetic dose of SP; conditions: SP 50 mg/kg i.p.
Description: Different groups of shrews were injected with a 50 mg/kg emetic dose of SP (i.p.) and were sacrificed at 5 min, 15 min, and 30 min (n=5-6 animals per group) post injection. Blood serum as well as two different brain (frontal cortex and brain stem) and gut (duodenum and jejunum) tissue samples were collected for the determination of SP levels relative to a saline-treated shrew control group (n=6). The brain SP concentration was determined in all of the cited exposure times, whereas gut SP tissue levels were analyzed for the 0 min (control), 5 min and 15 min exposure periods Likewise, serum SP concentrations were determined at the 0 min, 5 min and 15 min exposure periods as well as in a 10 min SP-exposed shrew group.
To collect blood, shrews were rapidly euthanized with isoflurane (Vedco, St. Joseph, Mo.) one at a time. Then, each shrew was laid on its back and taped to a metal tray, and cut transversely under the diaphragm and along the sides towards the arms to allow the ribcage to be lifted away. The heart was then held with forceps, and a 0.5 cc syringe with 28 ga hypodermic needle was inserted into the left ventricle. Blood was pulled gently into the syringe directly from the ventricle until the descending aorta appeared clear (approximately 50 μl -100 μl total volume), and rapidly transferred to a non-heparinized tube for centrifugation and removal of red blood cells. Brain and gut tissue were rapidly dissected following blood collection and decapitation. Preliminary sample preparation procedures were carried out to optimize detection conditions.
Because proteases can be deactivated by heat (El-Salhy, 107 Upsala J. Med. Sci. 101-10 (2002)), at basic pH (Crawford & Kalmakoff, 24 J. Virol. 412-15 (1977)), and in the presence of EDTA (Wei & Bobek, 49 Antimicrob. Agents Chemother. 2336-42 (2005)), the entire intestine was immediately immersed in a 70° C. preheated, 5 ml solution of normal saline containing […] EDTA at pH8.0. After a 5 min exposure, each gut was thrice flushed and rinsed with 5 ml of the saline solution and then allowed to cool down naturally to room temperature. Then, each gut was dissected and the duodenum and jejunum samples were placed separately in test tubes containing 1 ml assay buffer. The dissected frontal cortex and brain stem samples were placed in different test tubes containing 0.5 ml assay buffer. Each sample was homogenized using a tissue tearor (Biospec) set at level 5 for 15sec. The homogenates were then centrifuged at 17,000×g for 15 min at 4° C. The supernatants were obtained and saved at −80° C. until used for the EIA detection of SP. Samples were analyzed for SP using the “Correlate-EIA” kit from Assay Designs using a microplate reader.
as §1

delta Ava [L-Pro^9, N-MeLeu^10]SP (7-11) [GR73632]
frequency of scratching behavior vs vehicle (Least Shrew; 2.5 mg/kg i.p.): Significant enhancements
percentage of shrews vomiting (Least Shrew; 2.5 mg/kg i.p.): 87.5%
increase in emesis frequency vs vehicle control (Least Shrew; 2.5 mg/kg i.p.): 438%
frequency of scratching behavior vs vehicle (Least Shrew; 5 mg/kg i.p.): Significant enhancements
percentage of shrews vomiting (Least Shrew; 5 mg/kg i.p.): 100%
increase in emesis frequency vs vehicle control (Least Shrew; 5 mg/kg i.p.): 575%
onset of first emesis after injection (Least Shrew): 3 to 4 min
Fos-IR in gastrointestinal enteric nervous system vs saline (Fos): significant differences
shrews in which vomiting was induced (Fos; N=6): five of six
Fos-IR nuclei per coronal hemisection, AP (Fos; mean ± standard error): 2.4 ± 1.2
Fos-IR nuclei per coronal hemisection, DMNX (Fos; mean ± standard error): 3.3 ± 1.0
Fos-IR nuclei per coronal hemisection, NTS (Fos; mean ± standard error): 8.2 ± 1.1
Fos-IR nuclei per coronal hemisection, PFC (Fos; mean ± standard error): 58.4 ± 14.2
percentage of shrews vomiting ([1]; GR73632 1 mg/kg, NK1 receptor-intact (saline-pretreated) shrews): 44%
number of vomits ([1]; GR73632 1 mg/kg, normal shrews): about two vomits
percentage of shrews vomiting ([1]; GR73632 1 mg/kg, saporin-pretreated NK1 receptor-ablated shrews): 0%
percentage of shrews vomiting ([1]; GR73632 2.5 mg/kg, NK1 receptor-ablated shrews): 28%
percentage of shrews vomiting ([1]; GR73632 2.5 mg/kg, NK1 receptor-intact shrews): 62.5%
bouts of vomiting, ablated vs intact shrews ([1]; GR73632 5 mg/kg, NK1 ablated shrews): significantly less bouts of vomiting
percentage of shrews vomiting ([1]; GR73632 5 mg/kg, NK1 receptor-ablated shrews): 100%
percentage of shrews vomiting ([1]; GR73632 5 mg/kg, NK1 receptor-intact shrews): 100%
number of scratches ([1]; GR73632 1, 2.5, 5 mg/kg, NK1 receptor-ablated shrews): increased in a significant manner at all tested doses
duration of expulsion of food/liquid ([1]; NK1 receptor-ablated shrews): 15 to 30 s
duration of emesis (each vomit expulsion) ([1]; NK1 receptor-intact animals): 2 to 4 s

[Sar^9, Met (O2)“]-SP-saporin [SSP-saporin]
NK1 receptor-IR in the gut vs saline-treated controls (NK1 receptor; 1.2 mg/kg i.p., four days): clear loss
blood brain barrier penetration (NK1 receptor; peripherally administered, 1.2 mg/kg i.p.): does not penetrate the blood brain barrier

saporin
NK1 receptor-IR and SP-IR vs control shrews (NK1 receptor; 1.2 mg/kg, four days post-injection): not different

SP: tachykinin undecapeptide, nonselective NK1 receptor agonist, purchased from Sigma/RBI
emetic activity (Least Shrew; 10 mg/kg i.p.): inactive
emetic activity (Least Shrew; 25 mg/kg i.p.): inactive
percentage of shrews vomiting (Least Shrew; 50 mg/kg i.p.): 82%
increase in the frequency of vomiting vs vehicle control (Least Shrew; 50 mg/kg i.p.): 382%
percentage of shrews vomiting (Least Shrew; 100 mg/kg i.p.): 78%
increase in the frequency of vomiting vs vehicle control (Least Shrew; 100 mg/kg i.p.): 322%
other overt behavioral effect (e.g. scratching) (Least Shrew; at the doses tested, 10-100 mg/kg i.p.): no other overt behavioral effect
onset of first emesis after injection (Least Shrew): 1 to 2 min
time for brain stem SP-tissue level to attain maximal levels [2]: 15 min
decrease of basal frontal cortex SP concentration ([2]; 5 min): 34%
increase of basal SP blood serum level ([2]; 5 min post-injection): 3488 fold
increase of brain stem SP over basal level ([2]; 5 min post-injection): 156%
decrease of basal frontal cortex SP concentration ([2]; 15 min): 68%
increase of brain stem SP over basal level ([2]; 15 min post-injection): 287%
brain stem SP level ([2]; 30 min): returned to basal tissue level
decrease of basal frontal cortex SP concentration ([2]; 30 min): 89%
SP blood serum level ([2]; by 10 min): rapidly declined
duodenal SP tissue level increase over basal levels ([2]; within 5 min): 1883%
jejunal SP tissue level increase over basal level ([2]; within 5 min): 2133%

Source: patent publication US20110093959A1, “CRYPTOTIS PARVA SCREENING MODEL FOR ANTIEMETIC POTENTIAL” (priority 2008, published 2011)
